Test results: US20230357320A1, “HELICAL STAPLED PEPTIDES AND USES THEREOF” (FOG PHARMACEUTICALS, INC., priority 2020, published 2023)
Values after ≈ are worked out from the molar mass of the structure shown. Where two headings read alike, the source gives them in different places. Starred links: 1 amine or outer side, 2 acyl side, 3 side chain; linkers in the order of their positions; H or OH if unused. Positions of bridges follow the written chain, without caps; N, C: chain ends. Non-standard residues stand in square brackets, D forms with d. Residues, ends and D or L forms follow the SMILES beside them. Primed or numbered codes have the meaning given here. *: point of attachment. PL3 = (R)-N-acetyl-2-(2'-propenyl)proline (alpha-allyl proline), stapling residue, C=CC[C@@]1(C(=O)*)CCCN1C(C)=O; PL3″ = (R)-2-(2'-propenyl)proline (alpha-allyl proline), N-acetylated, C=CC[C@@]1(C(=O)*)CCCN1C(C)=O; FITC = O=C1OC2(c3ccc(O)cc3Oc3cc(O)ccc32)c2ccc(NC(=S)*)cc21; X1 = O=C([C@]1(CC=[*:3])CCCN1[*:1])[*:2]; Ala(cPr) = N[C@@H](CC1CC1)C(=O)O; S5 = C=CCCC[C@](C)(N)C(=O)O; Nle = CCCC[C@H](N)C(=O)O; βAla = NCCC(=O)O

Columns and labels:
ERβ LBD = biological target: T1, ERβ LBD (Homo sapiens, UniProt Q92731); test: Competition fluorescence polarization (FP) binding assay with FITC-ERL4 probe
T1 construct: pET28a+ vector containing ERβ LBD (residues from 261 to 500) along with an N-terminal His6-yBBr-TEV tag; His6 (N); yBBr (N); TEV cleavage site (N); made in house; host or cells: E. coli BL21(DE3) pLysS
Experimental: In addition to the PAMPA assay, to study the affinity of the first-generation ProLock™ stapled peptides to the Estrogen receptor p ligand-binding domain (ERβ LBD), a fluorescence polarization (FP) binding assay in competition format was used in the presence of the endogenous ERβ LBD ligand estradiol. Competition Fluorescence Polarization (FP) assay was performed on the peptides to determine their half-maximal effective concentration (EC50). To do this, FITC labeled ERL4 peptide (FITC-βAla-His-Pro-Leu-Leu-Nle-Arg-Leu-Leu-Leu-Ser-Pro-CONH2) was synthesized to be used as a fluorescence probe based on existing literature (Fuchs et al., Journal of the American Chemical Society 2013, 135 (11), 4364-4371). Direct FP was performed in black 384-well plates (Corning). The final volume of each assay well was 40 μL with constant concentration of FITC labeled ERL4 peptide (10 nM) and variable concentrations of ERβ LBD protein.
ERβ LBD expression and purification was performed as follows. BL21(DE3) pLysS E. coli cells were transformed with a pET28a+ vector containing ERβ LBD (residues from 261 to 500) along with an N-terminal His6-yBBr-TEV tag. An overnight culture in 10 mL of TB media containing 50 μg/mL kanamycin was prepared from a single bacterial colony. The overnight culture was subsequently added to 1 liter of autoclaved TB media containing 50 μg/mL kanamycin and shaken at 37° C. until an OD of 0.6-0.8 was reached. IPTG was added to the culture and left shaking for 6 hours. Bacterial culture was pelleted and resuspended in lysis buffer. Resuspended bacterial culture was incubated at 0° C. for 10 minutes before sonication at 65% amplitude with 10-sec cycles using a Branson Sonifier. The lysate was then cleared by centrifugation at 8000×g for 20 min. […] The expected molecular weight of the ERβ LBD protein is 30.8 KDa, which molecular weight was confirmed by SDS PAGE analysis. Purified ERβ LBD was concentrated to 90 μM and was stored at −80° C. buffer.
Competition FP assays were also employed. These were performed in black 384-well plates (Corning). The final volume of each assay well was 80 μL containing constant concentrations of estradiol (1 μM) and FITC labeled ERL4 (10 nM). The ERβ LBD concentration was held constant (200 nM) while varying the concentration of ProLock stapled peptides (3-fold dilution from 10 μM). Upon addition of samples to each well, the plate was centrifuged for 10 seconds at 3000 rpm and incubated at 4° C. for 1 hour. FP measurements were performed at room temperature with excitation and emission wavelengths at 485 and 535 nm using a Clariostar microplate reader (BMG Labtech). Each plate had high and low polarization samples, which are used to normalize the assay data. The competition FP results were analyzed by Prism 7 (GraphPad). The non-linear regression analysis of the data was used to determine the half-maximal effective concentration (EC50) of ProLock stapled peptides. […] The normalized FP values shown in FIG. 6 are mean±S.E.M of at least four independent replicates.

[1] = PAMPA (Parallel Artificial Membrane Permeability Assay); set-up: Papp at 5 h: dose or concentration left out as unconfirmed;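 also: Phospholipid-membrane PAMPA, donor and acceptor in DPBS pH 7.4 with 5% DMSO, 37 °C for 5 h, compound in each well quantified by reverse-phase HPLC-MS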
Experimental: (§1) The synthesized peptides were first analyzed with a PAMPA assay. […] The PAMPA plate system is composed of two compartments, donor and acceptor, which are separated by a phospholipid-infused membrane. The amount of compound transferred from the acceptor well into the donor well over a period of incubation time is used to determine the passive permeability of a compound.
(§2) The two plates are separated by a membrane infused with phospholipids. […] The amount of compound transferred from one well to the other is usually quantified by reverse-phase HPLC-mass spectrometry.
(§3) Briefly, all PAMPA assays were performed using the commercially available PAMPA plate system from Corning, which uses a proprietary membrane composed of structured phospholipids. […] To prevent nonspecific peptide loss to the plates, the acceptor wells of the Corning PAMPA plates were blocked overnight with 5% nonfat milk with 0.1% Triton X-100 in Dulbecco's phosphate buffer saline (DPBS) at pH=7.4, followed by extensive washing prior to assays. The donor wells and membrane itself were not exposed to the milk/Triton solution. […] The PAMPA experiments described herein were performed using plates from Corning Lot #9112010, Lot #9112011 and Lot #7317005 (Corning Inc., Corning, New York, USA).
(§4) To set up PAMPA assays, the PAMPA plate system was equilibrated at room temperature for at least an hour before setting up the assay. The acceptor plate preincubated with milk blocking solution was washed with water, followed by DPBS buffer. 300 μL of 5% DMSO in DPBS at pH=7.4 was added to the pre-blocked acceptor plate, and 200 μL of 10M compounds made with 5% DMSO in DPBS at pH=7.4 was added to the donor plate. The donor plate with a lid was then carefully inserted into the acceptor plate with no bubbles formed at the interface of donor and acceptor plates. The PAMPA assay plate was covered with aluminum foil and placed in a 37° C. incubator for 5 hours. 10 M input solution of all compounds was diluted 20-fold to a final acetonitrile concentration of 50% before analyzing by reverse-phase HPLC and Q-Exactive plus mass spectrometer. At the end of 5 hours, PAMPA donor and acceptor plates were separated and diluted 20-fold and 2-fold respectively to a final acetonitrile concentration of 50%. The diluted solutions of PAMPA donor and acceptor plates were analyzed by reverse-phase HPLC and Q-Exactive plus mass spectrometer.
(§5) Pe measures the passive permeability of each compound tested in the PAMPA assay, whereas % retention measures the amount of compound retained in solution at the end of the assay compared to the input sample.

[2] = CHI Log D measurement (chromatographic hydrophobicity index); conditions: reverse-phase HPLC, Phenomenex Gemini C-18 column, pH 7.4
in vitro = test: in vitro; set-up: dose or concentration left out as unconfirmed; conditions: PAMPA, pH 7.4, PAMPA Pe
Experimental: as §1, §2, §3, §4, §5

[3] = for % Retention: PAMPA
Experimental: as §1, §2, §3, §4, §5

physchem = conditions: pH 7.4
[4] = biological target: T2, Estrogen receptor β ligand-binding domain (ERβ LBD), residues 261 to 500, with N-terminal His6-yBBr-TEV tag (UniProt Q92731 261-500); test: competition fluorescence polarization against FITC-ERL4 probe, 200 nM ERβ LBD, 1 µM estradiol
T2 construct: range 261-500; Expressed in E. coli BL21(DE3) pLysS from pET28a+, purified by Ni-NTA and SEC; Assays were run in the presence of estradiol; also called ER LBD; not shown: N-terminal His6-yBBr-TEV tag
T2 sequence (Q92731 261-500): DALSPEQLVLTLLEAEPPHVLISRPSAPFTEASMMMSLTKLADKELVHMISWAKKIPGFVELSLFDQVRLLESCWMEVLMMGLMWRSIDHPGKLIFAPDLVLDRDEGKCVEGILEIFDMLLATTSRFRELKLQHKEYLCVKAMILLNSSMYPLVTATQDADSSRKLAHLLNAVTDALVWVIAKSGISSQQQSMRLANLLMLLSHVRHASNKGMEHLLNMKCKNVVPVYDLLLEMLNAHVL

[5] = biological target: T2, Estrogen receptor β ligand-binding …; test: competition fluorescence polarization; 200 nM ERβ LBD, 10 nM FITC-ERL4 probe, 1 µM estradiol
Experimental: Competition FP assays were also employed. These were performed in black 384-well plates (Corning). The final volume of each assay well was 80 μL containing constant concentrations of estradiol (1 μM) and FITC labeled ERL4 (10 nM). […] Upon addition of samples to each well, the plate was centrifuged for 10 seconds at 3000 rpm and incubated at 4° C. for 1 hour. […] Each plate had high and low polarization samples, which are used to normalize the assay data. The competition FP results were analyzed by Prism 7 (GraphPad).

[6] = biological target: T2, Estrogen receptor β ligand-binding …; test: direct fluorescence polarization; 10 nM probe, ERβ LBD titrated from 5 µM with estradiol; 1:1 binding model with Hill slope
Experimental: ERβ LBD protein (5 μM) premixed with estradiol (10 μM) was the highest concentration tested in the assay. The subsequent protein concentrations were three-fold dilutions from the highest concentration of 5 μM. Upon addition of samples to each well, the plate was centrifuged for 10 seconds at 3000 rpm and incubated at 4° C. for 1 hour. […] The direct FP results were analyzed by Prism 7 (GraphPad).

[7] = binding towards the ERβ LBD, read-out: EC50
[8] = Table 4, binding to ER LBD, estradiol 1 μM, FITC-ERL4 10 nM, ERβ LBD 200 nM, mean ± S.E.M, at least four replicates, read-out: EC50

Molecule: CNC(=O)[C@H](Cc1ccc(O)cc1)NC(=O)[C@H](Cc1c[nH]cn1)NC(=O)[C@H](CC(C)C)NC(=O)[C@H](CC(C)C)NC(=O)[C@H](CCCNC(=N)N)NC(=O)[C@]1(C)CCCC=CC[C@]2(CCCN2C(C)=O)C(=O)N[C@@H](CC(C)C)C(=O)N[C@@H](CC(C)C)C(=O)N1 [PLL4-3, Ac-PL3-Leu-Leu-S5-Arg-Leu-Leu-His-Tyr-NHMe] (Ac-[X1]LL[S5]RLLHY-NHMe; staple 1-4)
- EC50 (ERβ LBD): 700 nM
- Papp at 5 h ([1]; PAMPA, pH 7.4): < 0.1 ×10⁻⁶ cm/s
- % Retention ([1]; Table 5, compound retained in solution at the end of the PAMPA assay compared to the input sample): 73 ± 4%
- chromatographic logD [2]: 2.7

Molecule: CNC(=O)[C@H](Cc1ccc(O)cc1)NC(=O)[C@@H](NC(=O)[C@H](CC(C)C)NC(=O)[C@H](CC(C)C)NC(=O)[C@H](CC(N)=O)NC(=O)[C@]1(C)CCCC=CC[C@]2(CCCN2C(C)=O)C(=O)N[C@@H](CCCCN)C(=O)N[C@@H](CC(C)C)C(=O)N1)[C@@H](C)O [PLL4-5, Ac-PL3-Lys-Leu-S5-Asn-Leu-Leu-Thr-Tyr-NHMe] (Ac-[X1]KL[S5]NLLTY-NHMe; staple 1-4)
- EC50 (ERβ LBD; [7]): 3000 nM
- Papp at 5 h (in vitro): 0.7 ± 0.2 ×10⁻⁶ cm/s
- chromatographic logD [2]: 1.8
- PAMPA Pe [3]: 0.7 ± 0.2 (×10^−6) cm/sec
- % Retention [3]: 74 ± 3%
- solubility (physchem): 880 µM (≈ 1030 µg/mL)

Molecule: CNC(=O)[C@H](CC(=O)O)NC(=O)[C@H](CCC(N)=O)NC(=O)[C@H](CC(C)C)NC(=O)[C@H](CC(C)C)NC(=O)[C@H](Cc1ccc(O)cc1)NC(=O)[C@]1(C)CCCC=CC[C@]2(CCCN2C(C)=O)C(=O)N[C@@H](CC2CC2)C(=O)N[C@@H](CC(C)C)C(=O)N1 [PLL7-7, Ac-PL3-Cpa-Leu-S5-Tyr-Leu-Leu-Gln-Asp-NHMe] (Ac-[X1][Ala(cPr)]L[S5]YLLQD-NHMe; staple 1-4)
- EC50 (ERβ LBD; [8]): 900 ± 100 nM
- EC50 (ERβ LBD; [7]): 800 to 1300 nM
- Papp at 5 h (in vitro): 1 ± 0.1 ×10⁻⁶ cm/s
- chromatographic logD [2]: 2
- PAMPA Pe [3]: 1.0 ± 0.1 (×10^−6) cm/sec
- PAMPA Pe (text) [3]: exceeding 1 ×10^−6 cm/sec
- % Retention [3]: 108 ± 3%

Molecule: CNC(=O)[C@H](CC(=O)O)NC(=O)[C@H](Cc1c[nH]cn1)NC(=O)[C@H](CC(C)C)NC(=O)[C@H](CC(C)C)NC(=O)[C@H](CCCNC(=N)N)NC(=O)[C@]1(C)CCCC=CC[C@]2(CCCN2C(C)=O)C(=O)N[C@@H](CC(C)C)C(=O)N[C@@H](CC(C)C)C(=O)N1 [PLL7-9, Ac-PL3-Leu-Leu-S5-Arg-Leu-Leu-His-Asp-NHMe] (Ac-[X1]LL[S5]RLLHD-NHMe; staple 1-4)
- EC50 (ERβ LBD; [8]): 1300 ± 100 nM
- EC50 (ERβ LBD; [7]): 800 to 1300 nM
- Papp at 5 h (in vitro): 1.1 ± 0.2 ×10⁻⁶ cm/s
- chromatographic logD [2]: 2.1
- PAMPA Pe [3]: 1.1 ± 0.2 (×10^−6) cm/sec
- PAMPA Pe (text) [3]: exceeding 1 ×10^−6 cm/sec
- % Retention [3]: 85 ± 4%

Molecule: CNC(=O)[C@@H](NC(=O)[C@H](CC(C)C)NC(=O)[C@H](CC(C)C)NC(=O)[C@H](CC1CC1)NC(=O)[C@]1(C)CCCC=CC[C@]2(CCCN2C(C)=O)C(=O)N[C@@H]([C@@H](C)O)C(=O)N[C@@H](CC(C)C)C(=O)N1)[C@@H](C)O [PLL7-23, Ac-PL3-Thr-Leu-S5-Cpa-Leu-Leu-Thr-NHMe] (Ac-[X1]TL[S5][Ala(cPr)]LLT-NHMe; staple 1-4)
- EC50 (ERβ LBD; [8]): 2400 ± 100 nM
- Papp at 5 h (in vitro): < 0.1 ×10⁻⁶ cm/s
- chromatographic logD [2]: 3.2
- % Retention [3]: 92 ± 2%

B1: PLL7-20 (Ac-PL3-Ala-Leu-S5-His-Leu-Leu-Asn-NHMe) (peptide)
peptide: Ac-[PL3]AL[S5]HLLN-NHMe
modifications: staple 1-4; also: staple isomer 2, cis olefin
notes: Second-generation ProLock stapled peptide; X marks non-standard residues
- binding result [4]: no binding (tested: peptide titrated 3-fold from 10 µM)

B2: PLL7-8 (Ac-PL3-Ala-Leu-S5-Tyr-Leu-Leu-Gln-Asp-NHMe) (peptide)
peptide: Ac-[PL3]AL[S5]YLLQD-NHMe
modifications: staple 1-4; also: staple isomer 2, cis olefin
notes: as for B1
- binding result [4]: no binding (tested: peptide titrated 3-fold from 10 µM)

B3: PLL5-5 (Ac-PL3-Thr-Leu-S5-Tyr-Leu-Leu-Asp-NHMe) (peptide)
peptide: Ac-[PL3]TL[S5]YLLD-NHMe
modifications: staple 1-4; also: staple isomer 2, cis olefin
notes: as for B1
- binding result [4]: no binding (tested: peptide titrated 3-fold from 10 µM)

B4: PLL5-6 (Ac-PL3-Lys-Leu-S5-Tyr-Leu-Leu-Asp-NHMe) (peptide)
peptide: Ac-[PL3]KL[S5]YLLD-NHMe
modifications: staple 1-4; also: staple isomer 2, cis olefin
notes: as for B1
- binding result [4]: no binding (tested: peptide titrated 3-fold from 10 µM)

B5: PLL5-1 (Ac-PL3-Leu-Leu-S5-Tyr-Leu-Leu-Asp-Tyr-NHMe) (peptide)
peptide: Ac-[PL3″]LL[S5]YLLDY-NHMe
modifications: staple 1-4; also: staple isomer 2, cis olefin
notes: as for B1
- EC50 [5]: 3900 nM

B6: PLL7-1 (Ac-PL3-Thr-Leu-S5-Tyr-Leu-Leu-Asp-Asp-NHMe) (peptide)
peptide: Ac-[PL3]TL[S5]YLLDD-NHMe
modifications: staple 1-4; also: staple isomer 2, cis olefin
notes: as for B1
- binding result [4]: no binding (tested: peptide titrated 3-fold from 10 µM)

B7: PLL5-3 (Ac-PL3-Leu-Leu-S5-Tyr-Leu-Leu-Gln-Tyr-NHMe) (peptide)
peptide: Ac-[PL3]LL[S5]YLLQY-NHMe
modifications: staple 1-4; also: staple isomer 2, cis olefin
notes: as for B1
- EC50 [5]: 500 nM

B8: PLL5-2 (Ac-PL3-Leu-Leu-S5-Tyr-Leu-Leu-Asp-Asp-NHMe) (peptide)
peptide: Ac-[PL3]LL[S5]YLLDD-NHMe
modifications: staple 1-4; also: staple isomer 2, cis olefin
notes: as for B1
- EC50 [5]: 1200 nM

B9: FITC labeled ERL4 peptide (FITC-βAla-His-Pro-Leu-Leu-Nle-Arg-Leu-Leu-Leu-Ser-Pro-CONH2) (peptide)
peptide: {FITC}-[βAla]HPLL[Nle]RLLLSP-NH2
notes: Fluorescent probe of the FP assays; also called FITC-ERL4; FITC-ERL4 probe
- Kd [6]: 160 nM

B10: PLL5-11 (Ac-PL3-Leu-Leu-S5-Tyr-Leu-Leu-His-NHMe) (peptide)
peptide: Ac-[PL3]LL[S5]YLLH-NHMe
modifications: staple 1-4; also: staple isomer 2, cis olefin
notes: as for B1
- binding result [4]: no binding (tested: peptide titrated 3-fold from 10 µM)

B11: PLL5-12 (Ac-PL3-Leu-Leu-S5-Tyr-Leu-Leu-Gln-NHMe) (peptide)
peptide: Ac-[PL3]LL[S5]YLLQ-NHMe
modifications: staple 1-4; also: staple isomer 2, cis olefin
notes: as for B1
- EC50 [5]: 2000 nM
